Results published in publication PMC5797166, “A multidrug ABC transporter with a taste for GTP” (Scientific Reports, 2018).

Assays:
BmrC/BmrD = biological target: T1, BmrC/BmrD (Bacillus subtilis, UniProt O07549+O07550); assay: fluorescence transport assay, inside-out E. coli membrane vesicles; assay type: biochemical; details: 2 mM ATP or GTP, Walker-A K/A double mutant as control
T1 construct: full-length heterodimer overexpressed in E. coli, inside-out membrane vesicles

PatA/PatB = biological target: T2, PatA/PatB (Streptococcus pneumoniae, UniProt Q8DN70+Q8DN72); assay: coupled NADH oxidation assay, GTPase; assay type: biochemical; details: nanodiscs of S. pneumoniae lipids, 4 mM GTP, 2 mM MgCl2, pH 7.4
T2 construct: gene ABC-NP; models PatA 1-564, PatB 1-603

[1] = test system: Nc1nc2c(ncn2[C@@H]2O[C@H](COP(=O)(O)OP(=O)(O)OP(=O)(O)O)[C@@H](O)[C@H]2O)c(=O)[nH]1; assay: purified protein; assay type: biochemical, Streptococcus pneumoniae; details: proteoliposomes of E. coli lipids, 10 mM MgCl2, pH 8, 37 °C, cooperative fit, nH 1.74

T1 sequence (O07550 whole entry): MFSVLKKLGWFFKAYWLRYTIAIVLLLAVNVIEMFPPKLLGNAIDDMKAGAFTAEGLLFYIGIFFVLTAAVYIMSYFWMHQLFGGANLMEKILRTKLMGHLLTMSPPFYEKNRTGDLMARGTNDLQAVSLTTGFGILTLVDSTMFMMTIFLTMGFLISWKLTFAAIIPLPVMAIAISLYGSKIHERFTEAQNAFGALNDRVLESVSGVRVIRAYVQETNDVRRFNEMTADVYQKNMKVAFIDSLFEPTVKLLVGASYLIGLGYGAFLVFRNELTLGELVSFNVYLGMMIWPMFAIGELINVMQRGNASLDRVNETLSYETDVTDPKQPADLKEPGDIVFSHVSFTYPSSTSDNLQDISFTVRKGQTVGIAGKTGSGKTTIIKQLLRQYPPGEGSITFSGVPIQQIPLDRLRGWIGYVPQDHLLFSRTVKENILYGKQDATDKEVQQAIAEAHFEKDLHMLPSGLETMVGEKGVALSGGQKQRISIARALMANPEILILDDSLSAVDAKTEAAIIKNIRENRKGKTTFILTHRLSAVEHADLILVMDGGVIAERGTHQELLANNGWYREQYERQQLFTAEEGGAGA
T1 sequence (O07549 whole entry): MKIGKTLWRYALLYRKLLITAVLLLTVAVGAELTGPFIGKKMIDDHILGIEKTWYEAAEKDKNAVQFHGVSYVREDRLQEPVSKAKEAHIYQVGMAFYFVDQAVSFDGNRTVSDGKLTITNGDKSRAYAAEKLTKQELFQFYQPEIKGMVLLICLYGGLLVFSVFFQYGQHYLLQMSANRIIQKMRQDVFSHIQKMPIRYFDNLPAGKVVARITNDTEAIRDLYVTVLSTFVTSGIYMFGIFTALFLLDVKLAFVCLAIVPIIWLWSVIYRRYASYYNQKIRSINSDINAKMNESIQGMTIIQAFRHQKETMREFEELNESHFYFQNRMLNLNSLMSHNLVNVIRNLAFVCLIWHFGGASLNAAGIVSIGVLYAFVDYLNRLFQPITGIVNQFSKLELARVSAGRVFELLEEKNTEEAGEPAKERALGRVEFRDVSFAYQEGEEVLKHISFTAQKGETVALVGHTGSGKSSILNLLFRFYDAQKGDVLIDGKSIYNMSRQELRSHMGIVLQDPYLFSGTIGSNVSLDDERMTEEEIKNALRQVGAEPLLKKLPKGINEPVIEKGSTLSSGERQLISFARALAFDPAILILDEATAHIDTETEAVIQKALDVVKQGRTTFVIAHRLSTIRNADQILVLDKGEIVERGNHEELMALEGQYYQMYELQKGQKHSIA
T2 sequence (Q8DN70 entry or part of it): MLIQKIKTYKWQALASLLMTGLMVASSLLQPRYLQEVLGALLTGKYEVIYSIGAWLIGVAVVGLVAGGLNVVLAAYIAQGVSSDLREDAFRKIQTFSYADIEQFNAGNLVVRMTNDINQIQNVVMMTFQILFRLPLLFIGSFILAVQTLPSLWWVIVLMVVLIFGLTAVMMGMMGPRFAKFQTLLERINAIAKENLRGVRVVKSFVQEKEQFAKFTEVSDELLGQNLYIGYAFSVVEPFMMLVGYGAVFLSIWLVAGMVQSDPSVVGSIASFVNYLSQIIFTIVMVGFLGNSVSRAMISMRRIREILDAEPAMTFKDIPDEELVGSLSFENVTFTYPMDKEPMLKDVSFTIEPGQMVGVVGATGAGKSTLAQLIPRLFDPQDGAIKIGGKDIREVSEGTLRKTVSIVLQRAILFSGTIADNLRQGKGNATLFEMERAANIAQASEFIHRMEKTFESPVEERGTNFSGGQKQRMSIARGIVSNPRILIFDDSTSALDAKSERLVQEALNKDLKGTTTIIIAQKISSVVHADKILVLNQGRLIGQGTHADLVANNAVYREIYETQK
T2 sequence (Q8DN72 entry or part of it): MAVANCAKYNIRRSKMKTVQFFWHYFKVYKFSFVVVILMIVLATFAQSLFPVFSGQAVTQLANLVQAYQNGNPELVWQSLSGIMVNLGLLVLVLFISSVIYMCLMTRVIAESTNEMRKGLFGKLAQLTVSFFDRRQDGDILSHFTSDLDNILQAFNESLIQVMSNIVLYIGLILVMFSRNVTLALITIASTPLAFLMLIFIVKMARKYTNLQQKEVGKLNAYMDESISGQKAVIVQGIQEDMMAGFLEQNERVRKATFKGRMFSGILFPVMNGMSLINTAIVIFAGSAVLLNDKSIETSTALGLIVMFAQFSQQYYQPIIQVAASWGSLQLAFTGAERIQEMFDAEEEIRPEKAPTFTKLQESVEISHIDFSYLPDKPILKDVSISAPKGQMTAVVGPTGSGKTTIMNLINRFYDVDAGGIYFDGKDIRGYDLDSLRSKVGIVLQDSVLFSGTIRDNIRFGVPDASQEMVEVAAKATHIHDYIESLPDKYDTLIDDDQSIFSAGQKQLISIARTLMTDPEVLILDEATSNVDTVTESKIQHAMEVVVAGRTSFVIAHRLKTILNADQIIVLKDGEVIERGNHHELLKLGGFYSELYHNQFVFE

Compound: CCOc1ccc(-c2nc3ccc(-c4nc5ccc(N6CCN(C)CC6)cc5[nH]4)cc3[nH]2)cc1 [Hoechst 33342, 2′-(4-ethoxyphenyl)-5-(4-methyl-1-piperazinyl)-2,5′-bis-1H-benzimidazole]
- fluorescence transport assay, inside-out E. coli membrane vesicles (BmrC/BmrD; 1 µM Hoechst, 2 mM MgCl2, pH 8.0, 25 °C): BmrC/BmrD behaves as a conventional ABC transporter being more active in the presence of ATP

Compound: COc1cccc2c1C(=O)c1c(O)c3c(c(O)c1C2=O)C[C@@](O)(C(=O)CO)C[C@@H]3O[C@H]1C[C@H](N)[C@H](O)[C@H](C)O1 [doxorubicin]
- fluorescence transport assay, inside-out E. coli membrane vesicles (BmrC/BmrD; 2 µM doxorubicin, 2 mM MgCl2, pH 8.0, 25 and 37 °C): ATP was the preferred energy substrate for BmrC/BmrD at both temperatures

Compound: [O]=[V]([OH])([OH])[OH] [orthovanadate]
- % inhibition at 4 mM (PatA/PatB): 94%

Compound: PatA/PatB (Streptococcus pneumoniae R6)
- Km [1]: 2640 ± 460 µM
